This note sets out measurements from patent US4952580A, “Pesticidal polyhaloalkene derivatives” (priority 1988, dated 1990).

Where two headings read alike, the source gives them in different places.

The inhibition is the percentage by which the read-out fell short of the control. One may read the mortality as the percentage killed.

For experiment [1], the system named is root-knot nematode (Meloidogyne incognita). Put plainly: Initial Root-Knot Nematicidal Activity. The format is in vivo. The settings on record: 336 h, read-out: Percent Control; for pest or weed control at 0.313 ppm: Table 2, Application Rate 0.313 ppm; for pest or weed control at 1.25 ppm: Table 2, Application Rate 1.25 ppm; for pest or weed control at 0.078 ppm: Table 2, Application Rate 0.078 ppm; for pest or weed control at 0.156 ppm: Table 2, Application Rate 0.156 ppm. On the procedure: (§1) Compounds of this invention were tested as follows for nematicidal and anthelmintic activity as dust formulations (initial and residual activity) and as acetone/water formulations (systemic activity). The formulations are described above.
The activity against root-knot nematode (Meloidogyne incognita) was determined by incorporating the compound of the invention in nematode infested soil at rates in the range of 10 ppm to 0.078 ppm of compound. Several tomato or cucumber seedlings were planted in the nematode infested soil. Two weeks after planting the test pots were evaluated to ascertain the degree of galling (swelling) on the roots of the plants, indicating the control provided by the test chemical.
The results expressed as precent control (determined by knot index) are set forth as averages in Table 2 (appended). Knot index is a numerical designation assigned at evaluation, having the following meanings:
Percent control is related to knot index as follows:
When the Knot Index is between 0 and 1 it is further subdivided as follows to indicate how close the percent control is to 75% or 100%: […]

Experiment [2] relates to root-knot nematode. Description: Systemic Activity (basipetal, foliar spray) against root-knot nematode. The settings on record: 336 h, Table 8, rate 2000 ppm, read-out: Percent Control. The format is in vivo, Meloidogyne incognita. On the procedure:
as §1
Compounds of the invention were tested for basipetal systemic activity against the root-knot nematode. In this test, tomato plants are grown in 10.2 cm diameter fiber pots containing steam-pasteurized soil mix (50%, soil, 50% sand) until 4-6 true leaves appear. Three of the pots are then placed on a turntable in a spray hood and the plants sprayed with 50 ml of water/acetone solution containing the test compound. The soil surface is covered during the spraying to prevent spraying of the soil. After treatment, the potted plants are placed in a lighted drying chamber. The plants are then grown in a growth chamber at 25° C. for three days and inoculated with a standard nematode culture by incorporating the inoculum into the top cm of soil in the pots. The plants are returned to the growth chamber for about two weeks at which time the pots are allowed to dry until the plants begin to wilt. The roots are shaken free of soil and the degree of galling (swelling) noted as compared to galling of untreated control plants. The results are expressed as Knot Index and Percent Control as defined in the initial root-knot nematode activity tests reported above in Table 2.

Experiment [3] concerns root-knot nematode. Put plainly: Residual Root-Knot Nematicidal Activity. The settings on record: read-out: Percent Control. Type of experiment: in vivo, Meloidogyne incognita. The method, then: as §1
The ability of nematicidal compounds of the invention to control root-knot nematode infestations in soil over a period of time after treatment was evaluated. Dust formulations of test compound (5%) were incorporated into soil samples at test compound rates of 5 and 10 ppm. Subsequently, the treated soil samples were inoculated with nematode inoculum at weekly intervals, and Knot Index and Percent Control determined on seedlings planted in the soil samples. Specifically, soil treated with test compound was placed in 7.6 cm diameter fiber pots and stored in a greenhouse. At one, two and four weeks post-treatment, the appropriate number of pots was infested with root-knot nematode eggs and larvae. A cucumber or tomato seedling was planted in each pot and evaluated approximately two weeks after the soil infestation to obtain the test results reported in Tables 3 and 3a appended.

The test system of experiment [4] is stunt nematode. Description: Stunt Nematode Test. The format is in vivo. On the procedure:
as §1
The procedure was substantially the same as in the […] seedling, with subsequent inoculation of the soil with combined larvae and adult stunt nematodes. The samples were evaulated approximately four weeks after infestation. […] "Percent control" means the difference between average population counts between untreated and treated samples, divided by average population count of untreated sample, multiplied by 100.

In experiment [5] the test system is lesion nematode. Description: Lesion Nematode Test. The format is in vivo. The following applies: Table 5; rate 2.5 ppm; read-out: Percent Control. On the procedure: as §1
The procedure was substantially the same as in the stunt nematode test described above except that pea seedlings were used. The results (Table 5 appended) show good control with many of the compounds at the application rates tested as compared with untreated samples (no control). "Percent Control" is defined as follows: [formula]

Experiment [6] concerns root-knot nematode. Put plainly: Soil Mobility against root-knot nematode. Type of experiment: in vivo, Meloidogyne incognita. The settings on record: 336 h, Table 7a, 5% dust, 5 ppm, read-out: Percent Control. On the procedure: as §1
The ability of nematicidal compounds of the invention to move through nematode-infested soil […] infested soil, and subsequently eluting the soil with 15 cm of water (equivalent to 15 cm of rainfall) into a series of two or more pots of untreated, but nematode-infested, soil. Specifically, the pots were 8 cm diameter plastic pots containing a 10 cm^3 layer of sand over a coarse grade filter paper disc. Sufficient soil was placed over the sand to fill the pots, and a second filter paper disc was placed over the soil. Each test compound-treated pot was nested over a series of two or more pots containing untreated, but nematode-infested soil, also containing sand filter paper discs as described for the treated soil pots. Fifteen cm of water was slowly dripped into the top pots and the pots were allowed to drain for 16-18 hours to remove excess water. The top filter of each pot was then removed and the pots were planted with a cucumber or tomato seedling. […] "Knot Index" and "Percent Control" are as defined in the initial root-knot nematode tests above.

Experiment [7] concerns Caenorhabditis elegans. Description: C. Elegans Nematode Screening Test and Evaluation (in-vitro). The following applies: Caenorhabditis elegans. The method, then: This in-vitro test using the free-living nematode Caenorhabditis elegans, is a modification of the assay developed by Simpkin and Coles, J. Chem. Tech. […] One milliliter of a test medium consisting of 5 mg ampicillin, 10,000 units of mycostatin and 10 ml of a dense suspension of Escherichia coli per 100 ml of a buffer solution, was pipetted into each well of a 24-well microtiter plate. The candidate nematicide, suspended at the appropriate concentration in dimethylsulfoxide, was added to the wells in […] volumes. Each rate of application was replicated two to three times. After thorough mixing of the contents of each well, 50 to 100 μl of a nematode suspension in a buffer was added so that each well received 10-15 nematodes. After the nematodes were added, the microtiter plates were incubated at 20° C. for 5-6 days.
The effect of the candidate nematicide on the survival and the reproduction of C. elegans was then evaluated by comparison of the level of population developed in the treated wells with that in untreated wells. Specific effects on population development, such as reduced egg hatch or molting disruption, were noted if they were evident.

Setting [8] is: Table 2, Application Rate 0.625 ppm.
Setting [9] is: Table 2, Application Rate 2.5 ppm.

As to `CC(C)(C)CC(C)(C)Sc1nnc(SCCC(F)=C(F)F)s1` [Compound 12, 2-(1,1,3,3-tetramethylbutylthio)-5-(3,4,4-trifluoro-3-butenylthio)-1,3,4-thiadiazole], in experiment [1], the pest or weed control at 0.313 ppm is 8% and the pest or weed control at 1.25 ppm worked out at 79%. In experiment [1] (setting [8]), the pest or weed control at 0.625 ppm stood at 69%. The pest or weed control at 2.5 ppm in experiment [1] (setting [9]) worked out at 100%. The pest or weed control at 2000 ppm in experiment [2] came out at 73%. Also, the pest or weed control at 2000 ppm in experiment [2] (foliar) is 99%.
Take `FC(F)=C(F)CCSc1nnc(SCCC(F)=C(F)F)s1` [Compound 13, 2,5-di(3,4,4-trifluoro-3-butenylthio)-1,3,4-thiadiazole]: in experiment [1], the pest or weed control at 0.078 ppm was determined as 0%. Also, the pest or weed control at 0.156 ppm in experiment [1] is 13%. For the same compound, the pest or weed control at 0.313 ppm in experiment [1] was determined as 71%. For the same compound, the pest or weed control at 0.625 ppm was 96% in experiment [1] (setting [8]) and 95% in experiment [1]. For the same compound, the pest or weed control at 1.25 ppm in experiment [1] was determined as 99%. Also, the pest or weed control at 2.5 ppm in experiment [1] (setting [9]) worked out at 99%. For the same compound, the pest or weed control at 5 ppm in experiment [3] (168 h, Table 3, inoculation 1 week after treatment) was determined as 98%; in experiment [3] (336 h, Table 3, inoculation 2 weeks after treatment), 98%; in experiment [3] (672 h, Table 3, inoculation 4 weeks after treatment), 75%. In addition, the pest or weed control at 10 ppm in experiment [3] (168 h, Table 3, 10 ppm, inoculation 1 week after treatment) is 99%; in experiment [3] (336 h, Table 3, 10 ppm, inoculation 2 weeks after treatment), 99%; in experiment [3] (672 h) it was 95%. The pest or weed control at 2000 ppm in experiment [2] (foliar) is 79%.
As for `FC(F)=C(F)CCSc1nnc(-c2ccc(Cl)cc2)o1` [Compound 17, 2-(4-chlorophenyl)-5-(3,4,4-trifluoro-3-butenylthio)-1,3,4-oxadiazole], the pest or weed control at 2.5 ppm in experiment [1] (setting [9]) is 100%. The pest or weed control at 5 ppm in experiment [1] (Table 2, Application Rate 5.0 ppm) was 100%. Besides, in experiment [1] (Table 2, Application Rate 10.0 ppm), the pest or weed control at 10 ppm was 100%. Moreover, the pest or weed control at 2000 ppm in experiment [2] (foliar) turned out to be 42%.
Turning to `FC(F)=C(F)CCSc1nnc(Cc2ccc(Cl)cc2)o1` [Compound 43, 2-(4-chlorophenylmethyl)-5-(3,4,4-trifluoro-3-butenylthio)-1,3,4-oxadiazole], in experiment [1], the pest or weed control at 0.078 ppm is 13%. Also, in experiment [1], the pest or weed control at 0.156 ppm stood at 38%. Besides, the pest or weed control at 0.312 ppm in experiment [1] (Table 2, Application Rate 0.312 ppm) turned out to be 78%. Further, the pest or weed control at 1.25 ppm in experiment [1] was found to be 56%. Also, the values for the pest or weed control at 2.5 ppm in experiment [1] (setting [9]) and in experiment [5] were 97% and 93%, respectively. For the same compound, in experiment [1] (Table 2, Application Rate .5 ppm), the pest or weed control at 0.5 ppm came out at 99%. For the same compound, the pest or weed control at 5 ppm stood at 100% in experiment [3] (168 h, Table 3a, 5% dust, inoculation 1 week post-treatment); 100% in experiment [3] (336 h, Table 3a, 5% dust, inoculation 2 weeks post-treatment); 100% in experiment [3] (672 h, Table 3a, 5% dust, inoculation 4 weeks post-treatment); 81% in experiment [4] (672 h, Table 4a; rate 5 ppm; read-out: Percent Control); 62% in experiment [4] (672 h; Table 4a; rate 5 ppm; read-out: Percent Control); 81% in experiment [6] (BOTTOM container). For the same compound, the pest or weed control at 5 ppm amounted to 97% in experiment [6] (MIDDLE container) and 99% in experiment [6] (TOP container). Besides, the inhibition at 5 ppm in experiment [7] (Table 9 screen, 5 ppm, read-out: Percent Inhibition of Reproduction) stood at 100%. The mortality at 5 ppm in experiment [7] (Table 9 screen, 5 ppm, read-out: Percent Mortality) is 25%; in experiment [7] (Table 10 evaluation, 5 ppm, read-out: Percent Mortality), 83%. Also, the inhibition at 1.25 ppm in experiment [7] (Table 10 evaluation, 1.25 ppm, read-out: Percent Inhibition of Reproduction) is 42%. In addition, the mortality at 1.25 ppm in experiment [7] (Table 10 evaluation, 1.25 ppm, read-out: Percent Mortality) worked out at 0%. Also, the inhibition at 2.5 ppm in experiment [7] (Table 10 evaluation, 2.5 ppm, read-out: Percent Inhibition of Reproduction) came out at 100%. Besides, the mortality at 2.5 ppm in experiment [7] (Table 10 evaluation, 2.5 ppm, read-out: Percent Mortality) was determined as 67%.
Turning to `FC(F)=C(F)CCSc1nnc(SCC2CC2)s1` [Compound 15, 2-cyclopropylmethylthio-5-(3,4,4-trifluoro-3-butenylthio)-1,3,4-thiadiazole], in experiment [1], the pest or weed control at 0.313 ppm worked out at 6% and the pest or weed control at 1.25 ppm stood at 97%. Moreover, in experiment [1] (setting [8]), the pest or weed control at 0.625 ppm is 31%. Besides, in experiment [1] (setting [9]), the pest or weed control at 2.5 ppm turned out to be 100%. The pest or weed control at 2000 ppm in experiment [2] (foliar) came out at 83%.
For the compound `FC(F)=C(F)CCSc1nnc(-c2ccccc2)o1` [Compound 16, 2-phenyl-5-(3,4,4-trifluoro-3-butenylthio)-1,3,4-oxadiazole], in experiment [1], the pest or weed control at 0.313 ppm was found to be 0%, the pest or weed control at 1.25 ppm came to 44% and the pest or weed control at 2.5 ppm turned out to be 95%. Besides, in experiment [1] (setting [8]), the pest or weed control at 0.625 ppm amounted to 25%. In addition, the pest or weed control at 2000 ppm in experiment [2] (foliar) came to 67%.
